Data from patent US10493077B2, “Fused imidazo-piperidine JAK inhibitor compound” (THERAVANCE BIOPHARMA R&D IP, LLC, priority 2017, dated 2019).
Like-named read-outs stand apart in the source and are kept apart here.

Legend:
Tyk2 = target: T1, Tyk2 (Homo sapiens, UniProt P29597); assay: LanthaScreen JAK biochemical assay, Tyk2; conditions: read-out: Tyk2 pKi (converted)
T1 construct: GST; purchased Life Technologies
Description: A panel of four LanthaScreen JAK biochemical assays (JAK1, 2, 3 and Tyk2) were carried in a common kinase reaction buffer (50 mM HEPES, pH 7.5, 0.01% Brij-35, 10 mM MgCl2, and 1 mM EGTA). Recombinant GST-tagged JAK enzymes and a GFP-tagged STAT1 peptide substrate were obtained from Life Technologies.
Serially diluted compound was pre-incubated with each of the four JAK enzymes and the substrate in white 384-well microplates (Corning) at ambient temperature for 1 h. ATP was subsequently added to initiate the kinase reactions in 10 μL total volume, with 1% DMSO. […] The plates were allowed to incubate at ambient temperature for 1 h before being read on the EnVision reader (Perkin Elmer). Emission ratio signals (520 nm/495 nm) were recorded and utilized to calculate the percent inhibition values based on DMSO and background controls.
For dose-response analysis, percent inhibition data were plotted vs. compound concentrations, and IC50 values were determined from a 4-parameter robust fit model with the Prism software (GraphPad Software). Results were expressed as pIC50 (negative logarithm of IC50) and subsequently converted to pKi (negative logarithm of dissociation constant, Ki) using the Cheng-Prusoff equation.

PKAC-ALPHA = target: T2, PKAC-ALPHA (Homo sapiens, UniProt P17612); assay: Kinome screen, PKAC-ALPHA; assay type: binding; conditions: screened at 1 μM
T2 construct: made in house; host or cells: T7 phage in E. coli (BL21-derived) or HEK-293
Description: (§1) Kinase-tagged T7 phage strains were grown in parallel in 24-well blocks in an E. coli host derived from the BL21 strain. E. coli were grown to log-phase and infected with T7 phage from a frozen stock (multiplicity of infection=0.4) and incubated with shaking at 32° C. until lysis (90-150 minutes). The lysates were centrifuged (6,000×g) and filtered (0.2 μm) to remove cell debris. The remaining kinases were produced in HEK-293 cells and subsequently tagged with DNA for qPCR detection.
(§2) Streptavidin-coated magnetic beads were treated with biotinylated small molecule ligands for 30 minutes at room temperature to generate affinity resins for kinase assays. The liganded beads were blocked with excess biotin and washed with blocking buffer (SeaBlock (Pierce), 1% BSA, 0.05% Tween 20, 1 mM DTT) to remove unbound ligand and to reduce non-specific phage binding. […] Test compounds were prepared as 40× stocks in 100% DMSO and directly diluted into the assay. All reactions were performed in polypropylene 384-well plates in a final volume of 0.04 ml. […] The beads were then re-suspended in elution buffer (1×PBS, 0.05% Tween 20, 0.5 μM non-biotinylated affinity ligand) and incubated at room temperature with shaking for 30 minutes. The kinase concentration in the eluates was measured by qPCR.

CDK9 = target: T3, CDK9 (Homo sapiens, UniProt P50750); assay: Kinome screen, CDK9; assay type: binding; conditions: screened at 1 μM
T3 construct: made in house; host or cells: T7 phage in E. coli (BL21-derived) or HEK-293
T3 sequence (P50750 whole entry): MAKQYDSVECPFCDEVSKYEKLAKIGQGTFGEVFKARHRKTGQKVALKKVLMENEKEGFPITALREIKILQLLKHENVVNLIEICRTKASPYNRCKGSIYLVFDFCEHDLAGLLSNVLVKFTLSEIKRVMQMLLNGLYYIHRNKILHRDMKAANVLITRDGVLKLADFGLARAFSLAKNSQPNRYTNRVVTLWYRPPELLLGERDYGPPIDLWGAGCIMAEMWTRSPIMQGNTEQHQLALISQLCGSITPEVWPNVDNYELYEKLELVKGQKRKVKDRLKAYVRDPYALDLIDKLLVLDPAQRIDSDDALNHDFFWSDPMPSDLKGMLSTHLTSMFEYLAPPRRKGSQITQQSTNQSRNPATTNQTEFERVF
Description: as §1, §2

[1] = Ocular pharmacokinetics in rabbit eyes; assay type: in vivo; conditions: for half-life: rabbit, vitreous, solution formulation in 2% 2-hydroxypropyl-β-cyclodextrin, intravitreal 50 μg/eye
Description: The objective of this assay was to determine the pharmacokinetics of a test compound in rabbit ocular tissues.
1-(2-(6-(2-ethyl-5-fluoro-4-hydroxyphenyl)-4-fluoro-1H-indazol-3-yl)-1,4,6,7-tetrahydro-5H-imidazo[4,5-c]pyridin-5-yl)-2-morpholinoethan-1-one (1), prepared in Example 2, was dissolved in 2% 2-hydroxypropyl-β-cyclodextrin to attain a target concentration of 1 mg/mL. Bilateral intravitreal injection (50 μL/eye) of the solution of test compound was administered to New Zealand white rabbits (50 μg/eye). The test compound concentration was measured in ocular tissues: vitreous, aqueous, retina/choroid and iris-ciliary body at pre-determined time points post injection (30 min, 4 h, 1 d, 3 d, 7 d, 14 d). Two rabbits (four eyes) were dosed for each time point.
A suspension formulation was prepared by combining compound 1 of Example 2 (Form 1), with 0.5% hydroxypropyl methylcellulose (HPMC E5)+0.02% Tween 80 in normal saline to attain a target concentration of 5 mg/mL, 20 mg/mL and 80 mg/mL for the 0.25 mg/eye, 1 mg/eye and 4 mg/eye doses respectively. Bilateral intravitreal injection (50 μL/eye) of the suspension of test compound was administered to New Zealand white rabbits. The test compound concentration was measured in ocular tissues as in the solution formulation assay at 30 min, 4 h, 24 h, 72 h, 7 d, 14 d, 28 d, 56 d and 84 d post injection. For the 4 mg/eye dose group, an additional time point at 168 d post injection was also collected. […] The clearance rate is consistent with the solubility of compound 1 in the vehicle and the ocular pharmacokinetic behavior in the solution formulation. […] Therefore, it is plausible that drug exposure is longer than that observed in this study. The drug concentration in plasma was measured and found to be at least 3 orders of magnitude lower than the concentration in vitreous tissue at all three concentrations.
A suspension formulation was prepared by combining compound 1 of Example 5 (Form 2), with 0.5% hydroxypropyl methylcellulose (HPMC E5)+0.02% Tween 80 in normal saline to attain a target concentration of […], 1 mg/mL, 2 mg/mL and 20 mg/mL for the 0.02 mg/eye, 0.05 mg/eye, 0.1 mg/eye and 1 mg/eye doses respectively. Bilateral intravitreal injection (50 μL/eye) of the suspension of test compound was administered to Dutch Belted rabbits. The test compound concentration was measured in vitreous humor, aqueous humor, iris-ciliary body, retina, retinal pigment epithelial/choroidal cells and plasma at 30 min, 7 d, 14 d, 28 d, 42 d and 56 d post injection. […] Therefore, it is plausible that drug exposure is longer than that observed in this study. The drug concentration in plasma was measured and found to be at least 3 orders of magnitude lower than the concentration in vitreous tissue at all three concentrations. The 3 orders of magnitude correspond to a logarithmic scale (ie 1000 on a non-logarithmic scale).

CDK2 = target: T4, CDK2 (Homo sapiens, UniProt P24941); assay: Kinome screen, CDK2; assay type: binding; conditions: screened at 1 μM
T4 construct: made in house; host or cells: T7 phage in E. coli (BL21-derived) or HEK-293
Description: as §1, §2

T1 sequence (P29597 whole entry): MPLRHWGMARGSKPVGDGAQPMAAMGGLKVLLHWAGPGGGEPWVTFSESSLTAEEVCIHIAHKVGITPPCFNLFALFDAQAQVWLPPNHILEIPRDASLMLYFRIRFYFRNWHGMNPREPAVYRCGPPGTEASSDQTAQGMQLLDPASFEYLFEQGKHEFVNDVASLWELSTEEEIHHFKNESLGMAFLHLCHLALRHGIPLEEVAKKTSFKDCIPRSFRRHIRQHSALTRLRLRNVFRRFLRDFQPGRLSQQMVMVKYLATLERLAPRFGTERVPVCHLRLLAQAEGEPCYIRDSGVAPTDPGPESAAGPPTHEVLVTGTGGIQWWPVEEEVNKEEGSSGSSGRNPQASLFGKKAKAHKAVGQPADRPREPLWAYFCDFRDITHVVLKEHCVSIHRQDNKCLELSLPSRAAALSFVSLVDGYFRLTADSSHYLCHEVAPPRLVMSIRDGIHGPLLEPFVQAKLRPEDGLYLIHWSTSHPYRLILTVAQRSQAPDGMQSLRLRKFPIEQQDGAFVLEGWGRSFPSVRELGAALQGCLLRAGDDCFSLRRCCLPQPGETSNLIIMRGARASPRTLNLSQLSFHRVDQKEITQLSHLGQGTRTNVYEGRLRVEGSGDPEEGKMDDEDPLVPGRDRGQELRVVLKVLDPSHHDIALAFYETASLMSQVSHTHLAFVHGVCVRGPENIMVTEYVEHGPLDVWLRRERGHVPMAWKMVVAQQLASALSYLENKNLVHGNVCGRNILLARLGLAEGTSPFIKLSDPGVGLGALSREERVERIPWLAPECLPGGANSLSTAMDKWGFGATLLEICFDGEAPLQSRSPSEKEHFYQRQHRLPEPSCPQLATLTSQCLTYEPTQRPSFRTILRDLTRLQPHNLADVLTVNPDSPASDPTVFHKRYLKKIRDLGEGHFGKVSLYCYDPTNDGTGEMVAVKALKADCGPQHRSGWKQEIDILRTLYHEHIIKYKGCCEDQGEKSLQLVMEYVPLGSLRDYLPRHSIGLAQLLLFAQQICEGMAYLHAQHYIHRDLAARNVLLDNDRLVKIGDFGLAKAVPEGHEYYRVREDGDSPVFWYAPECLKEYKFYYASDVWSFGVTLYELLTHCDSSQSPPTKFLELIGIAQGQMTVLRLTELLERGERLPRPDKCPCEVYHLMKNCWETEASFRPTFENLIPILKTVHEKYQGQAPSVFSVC

CCc1cc(O)c(F)cc1-c1cc(F)c2c(-c3nc4c([nH]3)CCN(C(=O)CN3CCOCC3)C4)n[nH]c2c1 [Compound 1, 1-(2-(6-(2-ethyl-5-fluoro-4-hydroxyphenyl)-4-fluoro-1H-indazol-3-yl)-1,4,6,7-tetrahydro-5H-imidazo[4,5-c]pyridin-5-yl)-2-morpholinoethan-1-one]
Ki (Tyk2): 2 nM | inhibition at 1 µM (PKAC-ALPHA): 20% | inhibition at 1 µM (CDK9): 9% | ocular exposure at 24 weeks ([1]; Form 1 suspension, intravitreal 4 mg/eye, New Zealand white rabbits): Sustained exposure | drug concentration in plasma lower than concentration in vitreous tissue ([1]; Form 1 suspension, intravitreal 0.25, 1 and 4 mg/eye, New Zealand white rabbits): at least 3 orders of magnitude | ocular exposure at 12 weeks (84 d) ([1]; Form 1 suspension, intravitreal, all doses (0.25, 1, 4 mg/eye), New Zealand white rabbits): Robust sustained exposure | drug concentration in plasma lower than concentration in vitreous tissue ([1]; Form 2 suspension, intravitreal 0.02, 0.05, 0.1 and 1 mg/eye, Dutch Belted rabbits): at least 3 orders of magnitude | change of drug concentration in vitreous tissue from 30 min to last time point tested ([1]; Form 2 suspension, intravitreal 0.02-1 mg/eye, Dutch Belted rabbits, last time point 28-56 d): very gradual decrease | half-life ([1]; New Zealand white, 50 μg/eye, New Zealand white rabbits, read-out: terminal half-life, vitreous tissue (converted)): ~48 h | concentration in plasma versus vitreous tissue ([1]; rabbit eyes, single intravitreal injection (summary of Assay 7)): at least three orders of magnitude lower | half-life ([1]; New Zealand white rabbits, read-out: half-life of initial decrease in concentration, vitreous tissue (converted)): ~9 h | inhibition at 1 µM (CDK2): 6%
